Literature values in patent US20140037729A1, “COMBINATION OF AN OPIOID AGONIST AND AN OPIOID ANTAGONIST IN THE TREATMENT OF PARKINSON'S DISEASE” (Euro-Celtique, S.A., priority 2010, published 2014).

Key:
[1] = reported
parkinsonian patients = details: at higher doses; Berg et al. 1999
parkinsonian monkeys = details: in the long term; Samadi et al. 2005

SMILES: C=CCN1CC[C@]23c4c5ccc(O)c4O[C@H]2C(=O)CC[C@@]3(O)[C@H]1C5 [Naloxone, naloxone]
- oral bioavailability [1]: ≤ 2%

SMILES: CN1CC[C@]23c4c5ccc(O)c4O[C@H]2[C@@H](O)C=C[C@H]3[C@H]1C5 [morphine]
- akinesia (parkinsonian patients): increase in akinesia

SMILES: O=C1CC[C@@]2(O)[C@H]3Cc4ccc(O)c5c4[C@@]2(CCN3CC2CC2)[C@H]1O5 [naltrexone]
- dyskinesias (parkinsonian monkeys): increases dyskinesias
